Each structure is given as a SMILES string.

The target of the first assay is T1, human β3 adrenergic receptor (Homo sapiens, UniProt P13945).
T1 construct: expressed in transfected cells; host or cells: CHO cells, stably transfected
T1 sequence (P13945 whole entry): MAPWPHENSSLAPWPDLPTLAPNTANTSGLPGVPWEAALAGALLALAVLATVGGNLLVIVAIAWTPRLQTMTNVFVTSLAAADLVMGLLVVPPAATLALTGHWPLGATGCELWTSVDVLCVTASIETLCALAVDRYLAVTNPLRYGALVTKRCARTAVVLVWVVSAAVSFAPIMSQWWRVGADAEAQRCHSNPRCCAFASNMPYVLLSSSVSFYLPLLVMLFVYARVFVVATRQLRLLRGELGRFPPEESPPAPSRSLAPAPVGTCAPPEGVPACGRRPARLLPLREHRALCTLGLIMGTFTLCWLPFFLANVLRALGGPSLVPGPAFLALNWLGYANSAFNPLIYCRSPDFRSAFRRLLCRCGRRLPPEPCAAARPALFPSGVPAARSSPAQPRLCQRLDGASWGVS
In words: Functional assay: cAMP production in CHO cells stably transfected with cloned β3-adrenergic receptor (LANCE TR-FRET). The settings on record: Table 1, read-out: Human β3 agonist functional activity. It counts as cell-based. The procedure: cAMP production in response to ligand is measured according to Barton, et al. (1991, Agonist-induced desensitization of D2 dopamine receptors in human Y-79 retinoblastoma cells. Mal. Pharmacol. v3229:650-658) modified as follows. cAMP production is measured using a homogenous time-resolved fluorescence resonance energy transfer immunoassay (LANCE™, Perkin Elmer) according to the manufacture's instructions. Chinese hamster ovary (CHO) cells, stably transfected with the cloned β-adrenergic receptor (β1, β2 or β3) are harvested after 3 days of subculturing. Harvesting of cells is done with Enzyme-free Dissociation. Media (Specialty Media). Cells are then counted and resuspended in assay buffer (Hank's Balanced salt solution supplemented with 5 mM HEPES, 0.1% BSA) containing a phosphodiesterase inhibitor (IBMX, 0.6 mM). The reaction is initiated by mixing 6,000 cells in 6 μL with 6 μL Alexa Fluor labeled cAMP antibody (LANCE™ kit) which is then added to an assay well containing 12 μL of compound (diluted in assay buffer to 2× final concentration). The reaction proceeds for 30 min at room temperature and is terminated by the addition of 24 μL detection buffer (LANCE™ kit). The assay plate is then incubated for 1 h at room temperature and time-resolved fluorescence measured on a Perkin Elmer Envision reader or equivalent. The unknown cAMP level is determined by comparing fluorescence levels to a cAMP standard curve.
The non-selective, full agonist β-adrenergic ligand isoproterenol is used at all three receptors to determine maximal stimulation. The human β3 adrenergic receptor (AR) selective ligand (S)—N-[4-[2-[[2-hydroxy-3-(4-hydroxyphenoxy)propyl]amino]ethyl]-phenyl]-4-iodobenzenesulfonamide is used as a control in all assays. Isoproterenol is titrated at a final concentration in the assay of 10^-10 M to 10-5 and the selective ligand (S)—N-[4-[2-[[2-hydroxy-3-(4-hydroxyphenoxy)propyl]amino]ethyl]phenyl]-4-iodobenzenesulfonamide is titrated at the β3 receptor at concentration of 10^-10 M to 10^-5 M. Unknown ligands are titrated at all 3β-adrenergic receptor subtypes at a final concentration in the assay of 10^-10 M to 10^-5 M to determine the EC50. The EC50 is defined as the concentration of compound that gives 50% activation of its own maximum. Data are analyzed using Microsoft Excel and Graphpad Prism or an internally developed data analysis software package.
As for `O[C@H](c1ccccc1)[C@H]1CC[C@@H](Cc2ccc3nc(CCn4ncc5ccccc54)[nH]c3c2)N1` [Example 7], the EC50 is 11 to 100 nM. `C[C@@H](c1nc2ccc(C[C@@H]3CC[C@H]([C@H](O)c4cccnc4)N3)cc2[nH]1)n1cccnc1=O` [Example 28]: the EC50 lay within 101 to 1000 nM. As for `Cc1nc(Cc2nc3ccc(C[C@@H]4CC[C@H]([C@H](O)c5ccccc5)N4)cc3[nH]2)c(C)s1` [Example 20], the EC50 was in the range of 101 to 1000 nM.

`Cc1nc2c(s1)CCC2c1nc2ccc(C[C@@H]3CC[C@H]([C@H](O)c4cccnc4)N3)cc2[nH]1` (some centres unmarked) [Example 29]: the EC50 fell in the range of 101 to 1000 nM.

As for `OC(c1ccccc1)C1CCC(Cc2ccc3nc(CCCn4cccn4)[nH]c3c2)N1` (centres unmarked) [Example 6], the EC50 lay in the range of 101 to 1000 nM. Turning to `CC(c1cscn1)c1nc2ccc(C[C@@H]3CC[C@H]([C@H](O)c4cccnc4)N3)cc2[nH]1` (some centres unmarked) [Example 27], the EC50 was in the range of 101 to 1000 nM. `OC(c1cccnc1)C1CCC(Cc2ccc3nc(-c4ccccc4C(F)(F)F)[nH]c3c2)N1` (centres unmarked) [Example 39]: the EC50 lay within 11 to 100 nM.

As to `O=C(O)c1ccccc1-c1nc2ccc(C[C@@H]3CC[C@H]([C@H](O)c4cccnc4)N3)cc2[nH]1` [Example 35], the EC50 is 101 to 1000 nM.

On to `OC(c1cccnc1)C1CCC(Cc2ccc3nc(C4CCc5scnc54)[nH]c3c2)N1` (centres unmarked) [Example 26], for which the EC50 lay within 101 to 1000 nM.

On to `Cc1nc(Cc2nc3ccc(C[C@@H]4CC[C@H]([C@H](O)c5ccccc5)N4)cc3[nH]2)cs1` [Example 8], for which the EC50 was 101 to 1000 nM. With `C[C@@H](c1nc2ccc(CC3CC[C@H]([C@H](O)c4ccccc4)N3)cc2[nH]1)n1cccnc1=O` (stereo partly drawn) [Example 1, 1-{(1S)-[6-({(2S,5R)-5-[(R)-Hydroxy(phenyl)methyl]pyrrolidin-2-yl}methyl)-1H-benzimidazol-2-yl]ethyl}pyrimidin-2(1H)-one], the EC50 is 11 to 100 nM. Still for that read-out and setting: in the case of `O=C(O)c1cccc(-c2nc3ccc(C[C@@H]4CC[C@H]([C@H](O)c5cccnc5)N4)cc3[nH]2)c1` [Example 36] it was 101 to 1000 nM; in that of `O=C1c2ccccc2C(=O)N1Cc1nc2ccc(C[C@@H]3CC[C@H]([C@H](O)c4ccccc4)N3)cc2[nH]1` [Example 17], 101 to 1000 nM. Same read-out and setting: in the case of `O[C@H](c1ccccc1)[C@H]1CC[C@@H](Cc2ccc3nc(C4CCc5ccnn54)[nH]c3c2)N1` (some centres unmarked) [Example 16] it was 101 to 1000 nM; in that of `O=C(O)c1ccc(-c2nc3ccc(C[C@@H]4CC[C@H]([C@H](O)c5cccnc5)N4)cc3[nH]2)cc1` [Example 37], 11 to 100 nM. The same measure, in the same setting: in the case of `CS(=O)(=O)c1cccc(-c2nc3ccc(C[C@@H]4CC[C@H]([C@H](O)c5cccnc5)N4)cc3[nH]2)c1` [Example 34] it was 11 to 100 nM. On to `CS(=O)(=O)c1ccccc1-c1nc2ccc(C[C@@H]3CC[C@H]([C@H](O)c4cccnc4)N3)cc2[nH]1` [Example 32], for which the EC50 lay within 11 to 100 nM. Still for that read-out and setting: as for `OC(c1ccccc1)C1CCC(Cc2ccc3nc(CCn4cnc5ccccc54)[nH]c3c2)N1` (centres unmarked) [Example 13], the figure is 101 to 1000 nM. Consider `CS(=O)(=O)c1ccc(-c2nc3ccc(C[C@@H]4CC[C@H]([C@H](O)c5cccnc5)N4)cc3[nH]2)cc1` [Example 33], for which the EC50 was in the range of 101 to 1000 nM. Same read-out and setting: in the case of `O[C@H](c1cccnc1)[C@H]1CC[C@@H](Cc2ccc3nc(C4CCc5ccnn54)[nH]c3c2)N1` (some centres unmarked) [Example 42] it was 101 to 1000 nM. Consider `O=c1ccncn1Cc1nc2ccc(C[C@@H]3CC[C@H]([C@H](O)c4ccccc4)N3)cc2[nH]1` [Example 19], for which the EC50 was 101 to 1000 nM. On to `CCc1nc2ccccc2n1CCc1nc2ccc(C[C@@H]3CC[C@H]([C@H](O)c4ccccc4)N3)cc2[nH]1` [Example 5], for which the EC50 is 101 to 1000 nM.

As for `Cc1nn(-c2ccccc2)c(C)c1CCc1nc2ccc(C[C@@H]3CC[C@H]([C@H](O)c4ccccc4)N3)cc2[nH]1` [Example 12], the EC50 was in the range of 101 to 1000 nM. As for `O[C@H](c1cccnc1)[C@H]1CC[C@@H](Cc2ccc3nc(-c4c(F)cccc4F)[nH]c3c2)N1` [Example 38], the EC50 fell in the range of 101 to 1000 nM. As for `O=C1c2ccccc2C(=O)N1Cc1nc2ccc(C[C@@H]3CC[C@H]([C@H](O)c4cccnc4)N3)cc2[nH]1` [Example 31], the EC50 is 101 to 1000 nM. As to `O[C@H](c1ccccc1)[C@H]1CC[C@@H](Cc2ccc3nc(C4CCc5scnc54)[nH]c3c2)N1` (some centres unmarked) [Example 24], the EC50 fell in the range of 11 to 100 nM. As to `Cc1nc2c(s1)CCC2c1nc2ccc(C[C@@H]3CC[C@H]([C@H](O)c4ccccc4)N3)cc2[nH]1` (some centres unmarked) [Example 21], the EC50 lay in the range of 11 to 100 nM. Take `OC(c1ccccc1)C1CCC(Cc2ccc3nc(CCc4cnn(-c5ccccc5)c4)[nH]c3c2)N1` (centres unmarked) [Example 11]: the EC50 fell in the range of 101 to 1000 nM.

Turning to `O[C@H](c1ccccc1)[C@H]1CC[C@@H](Cc2ccc3nc(CCn4ccnc4-c4ccccc4)[nH]c3c2)N1` [Example 10], the EC50 was in the range of 101 to 1000 nM. Same read-out and setting: in the case of `Oc1cccc(-c2nc3ccc(C[C@@H]4CC[C@H]([C@H](O)c5cccnc5)N4)cc3[nH]2)n1` [Example 40] it was 1000 to 3000 nM; in that of `O[C@H](c1cccnc1)[C@H]1CC[C@@H](Cc2ccc3nc(-c4ccccc4-c4ncc[nH]4)[nH]c3c2)N1` [Example 41], 101 to 1000 nM.

With `O[C@H](c1ccccc1)[C@H]1CC[C@@H](Cc2ccc3nc(CCn4cncn4)[nH]c3c2)N1` [Example 15], the EC50 is 101 to 1000 nM.

`Cc1cc2ncn(CCc3nc4ccc(C[C@@H]5CC[C@H]([C@H](O)c6ccccc6)N5)cc4[nH]3)c2cc1C` [Example 14]: the EC50 lay in the range of 101 to 1000 nM.

Staying with this assay, now noted: Table 2, read-out: Human β3 agonist functional activity.
As to `Cc1nc2c(s1)CCC2c1nc2ccc(C[C@@H]3CC[C@H]([C@H](O)c4ccccc4)N3)cc2n1C` (single isomer, unassigned) [Example 43], the EC50 was in the range of 1000 to 3000 nM.

Consider `Cc1nc2c(s1)CCC2c1nc2ccc(C[C@@H]3CC[C@H]([C@H](O)c4ccccc4)N3)cc2n1C` (single isomer, unassigned) [Example 44], for which the EC50 was in the range of 1000 to 3000 nM.

Still in this assay, the particulars now being: Table 3, read-out: Human β3 agonist functional activity.
With `Cc1nc2c(s1)CCC2c1nc2cc(C[C@@H]3CC[C@H]([C@H](O)c4ccccc4)N3)ccc2n1C` (single isomer, unassigned) [Example 45], the EC50 fell in the range of 101 to 1000 nM. In the case of `Cc1nc2c(s1)CCC2c1nc2cc(C[C@@H]3CC[C@H]([C@H](O)c4ccccc4)N3)ccc2n1C` (single isomer, unassigned) [Example 46], the EC50 lay in the range of 1000 to 3000 nM.

The target in a further assay is T2, β3AR (Rattus norvegicus, UniProt P26255).
T2 construct: host or cells: live rats (in vivo, bladder)
T2 sequence (P26255 whole entry): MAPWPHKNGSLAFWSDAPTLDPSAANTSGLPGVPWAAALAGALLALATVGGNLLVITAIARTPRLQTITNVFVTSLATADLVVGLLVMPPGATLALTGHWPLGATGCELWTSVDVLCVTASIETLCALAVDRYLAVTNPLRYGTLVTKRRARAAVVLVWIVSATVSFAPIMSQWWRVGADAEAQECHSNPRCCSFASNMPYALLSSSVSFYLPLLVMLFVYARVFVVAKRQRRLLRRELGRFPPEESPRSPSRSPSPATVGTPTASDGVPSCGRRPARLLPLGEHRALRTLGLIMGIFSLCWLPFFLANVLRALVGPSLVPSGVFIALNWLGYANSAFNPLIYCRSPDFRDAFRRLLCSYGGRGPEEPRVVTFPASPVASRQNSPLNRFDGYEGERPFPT
Test: not given
To be noted: rats, intravenous administration, cystometric studies; cited from earlier work.
`C[C@H](Cc1ccc2c(c1)OC(C(=O)[O-])(C(=O)[O-])O2)NC[C@H](O)c1cccc(Cl)c1.[Na+].[Na+]` [CL316243]: the bladder capacity result is “increases bladder capacity”, the micturition interval entry was “prolongation of micturition interval” and the residual urine volume result is given as “without increasing residual urine volume”.

Still in this assay, the particulars now being: rats, intravenous administration; cited from earlier work.
For `C[C@H](Cc1ccc2c(c1)OC(C(=O)[O-])(C(=O)[O-])O2)NC[C@H](O)c1cccc(Cl)c1.[Na+].[Na+]` [CL316243], the bladder pressure result was “reduces bladder pressure”.

The values are drawn from patent publication US8748433B2, “β3 adrenergic receptor agonists” (Merck Sharp & Dohme Corp., priority 2010, dated 2014).
